The source of these data is patent publication US9724309B2, “Film-form preparation and method for producing the same” (NITTO DENKO CORPORATION, priority 2010, dated 2017).

The series is described as follows: Particle size of drug particles by electron microscope. The note with it: 200 particles. Format: physicochemical. The protocol: The various drug particles used in the Examples and Comparative Examples were obtained passing the powder through a 32 μm, 53 μm, 90 μm sieve after pulverization, or obtained fine particles by a jet mill (product of Hosokawa Micron Group, spiral jet mill model 50AS) or a spray dryer (product of Büchi Labortechnik AG, mini spray dryer model B-290) after pulverization. The particle sizes of these drug particles were measured by electron microscope (product of Hitachi High-Technologies Corp., model TM-1000) and the 50 vol % average particle size was calculated from the measurement results of 200 particles. This value was used as the particle size index of the particles.
Consider `COc1cc(S(=O)(=O)[O-])ccc1O.O.[K+]` [Potassium guaiacolsulfonate particles, Potassium guaiacolsulfonate], for which the “50 vol % average particle size” value came to 5.0 um.
In the case of `COc1cc(S(=O)(=O)[O-])ccc1O.O.[K+]` [Potassium guaiacolsulfonate particles A, Potassium guaiacolsulfonate], the “50 vol % average particle size” value is on record as 2.1 um.
The value for `COc1cc(S(=O)(=O)[O-])ccc1O.O.[K+]` [Potassium guaiacolsulfonate particles C, Potassium guaiacolsulfonate] was 80.4 um; that for `COc1cc(S(=O)(=O)[O-])ccc1O.O.[K+]` [Potassium guaiacolsulfonate particles B, Potassium guaiacolsulfonate] was 40.4 um.
Regarding `N[C@@H](CCC(=O)N[C@@H](CS)C(=O)NCC(=O)O)C(=O)O` [Glutathione (reduced form) particles, Glutathione (reduced form)], the “50 vol % average particle size” value is reported as 5.3 um.
As to `Cn1c(=O)c2[nH]cnc2n(C)c1=O` [Aminophyllin particles, Aminophyllin], the “50 vol % average particle size” value is 4.3 um.
